Reference: patent publication US20150004100A1, “HETEROCYCLIC COMPOUNDS AS IMAGING PROBES OF TAU PATHOLOGY” (GE HEALTHCARE LIMITED, priority 2011, published 2015)
Entries after “also recorded” stand apart in the source; their conditions may differ.

Assays:
[1] = test system: tau+ NFTs; experiment: Tissue binding assay (fluorescence), NFTs in human AD tissue sections; parameters: key to NFTs (staining): −: No staining; +: weak staining; ++: moderate staining; +++: intense staining; conditions: for NFTs (staining): 100 μM, human AD tissue
Protocol: (§1) Human brain tissue samples from the entorhinal cortex of patients with Alzheimer's disease (AD) and healthy controls were obtained from Tissue Solutions (Tissue Solutions Ltd, Glasgow, UK). Tissue samples were collected after informed written consent, and specimens were dissected at the tissue bank and snap-frozen for cryopreservation at a time interval of between 3 and 18 h after death. The frozen tissue was embedded in TissueTek® (VWR) and sectioned using a Microm HM560 cryostat (Thermo Scientific). Serial 12 μm sections were mounted onto SuperFrost®+ glass slides (VWR) and stored a −70° C.
(§2) The binding of compounds to tau+NFTs and Aβ+ plaques in human AD tissue were evaluated based on fluorescence.
(§3) Briefly, tissue sections were defrosted and fixed in ice-cold 70% ethanol. All tissue sections were rinsed with PBS after fixation and between all subsequent incubation steps. To quench autofluorescence, tissue sections were incubated first with 0.25% KMnO4 (Sigma-Aldrich) in PBS for 12 min, and then with 0.1% […]/0.1% oxalic acid (both reagents from Sigma-Aldrich) in PBS for 1 min. The tissue sections were blocked with 2% BSA in PBS for 10 min, and then incubated with the test compounds at 100 μM concentration for 1 h at RT. […] Finally the tissue sections were rinsed in PBS, and mounted in SlowFade® mounting media (Invitrogen). Images of labelled tissue sections were captured using a Nikon digital camera connected to a Leica microscope and using the NIS Elements D software (Nikon). Images were further processed with the Photoshop® software (Adobe).

[2] = test system: Aβ+ plaques; experiment: Tissue binding assay (fluorescence), plaques in human AD tissue sections; parameters: key to Plaques (staining): −: No staining; +: weak staining; ++: moderate staining; +++: intense staining; conditions: for Plaques (staining): 100 μM, human AD tissue
Protocol: as §1, §2, §3

[3] = PAMPA (parallel artificial membrane permeability assay); type: in vitro ADME; conditions: 10 μM, 5 h at RT; criterion >−6
Protocol: The PAMPA assay is used to determine how well a compound crosses a cell membrane by measuring its passage through a phosphotidyl choline barrier. A permeability coefficient >−6 indicates high permeability across lipid membranes and is indicative of a compounds ability to cross the blood brain barrier.
A 10 μM solution was incubated on a PDVF membrane coated with a 2% phoshotidyl choline solution for 5 h at RT. Membrane penetration was measured using LC-MS.

[4] = Protein binding assay, human plasma (rapid equilibrium dialysis); type: in vitro ADME; conditions: % bound, criterion <99%
Protocol: (§4) The protein binding assays provide an estimate of free (unbound) fraction of the compound in the blood or brain in vivo. […] The desirable criterion for this assay is <99% of test compound bound.
(§5) Test compounds were first dissolved in DMSO to a concentration of 50 μM. This was followed by incubation in samples of human plasma and rat brain homogenates (final test concentration 1 μM). Binding of compounds to proteins was determined in the samples by rapid equilibrium dialysis after 5 and 30 min of incubation.

[5] = Protein binding assay, rat brain homogenates (rapid equilibrium dialysis); type: in vitro ADME; conditions: rat brain homogenate, % bound, criterion <99%
Protocol: as §4, §5

[6] = test system: rat liver microsomes; experiment: Liver microsome stability assay, rat; type: in vitro ADME; conditions: 1 μM, 37° C., parent compound remaining, criterion >50%
Protocol: (§6) The liver microsome stability assay provides an estimate of compound stability and rate of metabolism in vivo. The desirable criterion for this assay is >50% parent compound after 30 min.
(§7) A 1 μM compound solution was incubated with rat or human liver microsomes (20 mg/ml) at 37° C. and the amount of parent compound remaining following the incubation was determined after 5 and 30 min of incubation using LC-MS.

[7] = test system: human liver microsomes; experiment: Liver microsome stability assay, human; type: in vitro ADME; conditions: 1 μM, 37° C., parent compound remaining, criterion >50%
Protocol: as §6, §7

[8] = test system: tau+ NFTs; experiment: Tissue binding assay (fluorescence), NFTs in human AD tissue sections; parameters: key to NFTs (staining): −: No staining; +: weak staining; ++: moderate staining; +++: intense staining; conditions: for NFTs (staining): Table 2, human AD tissue
[9] = test system: Aβ+ plaques; experiment: Tissue binding assay (fluorescence), plaques in human AD tissue sections; parameters: key to Plaques (staining): −: No staining; +: weak staining; ++: moderate staining; +++: intense staining; conditions: human AD tissue
[10] = In vivo cold bio-distribution in rat (brain uptake, LC-MS); conditions: for tissue uptake at 2 min / tissue uptake at 10 min / tissue uptake at 30 min / tissue uptake at 60 min: male, Wistar, brain, iv, 50 μg/rat; for tissue uptake at 10 min: 10 min p.i.; for tissue uptake at 30 min: 30 min p.i.; for tissue uptake at 60 min: 60 min p.i.; for Clearance ratio 2:30 min: rat brain, 2 min vs 30 min p.i.
Protocol: All animal studies were in compliance with local rules and regulations. Test compounds were administered by intravenous (i.v) injection through the tail vein of naïve male Wistar rats (50 μg test compound/rat). The animals were sacrificed by dislocation of the neck at 2, 10, 30, 60 min post-injection (p.i). The brain and plasma were collected from each animal. The concentration of test compound was measured in the plasma and brain homogenates using LS-MS, and calculated as % compound/g (% ID/g).

[11] = high test concentration, AD tissue

PAMPA Log Pe [3]	fraction unbound at 1 μM [4]	fraction unbound at 1 μM [5]	Liver stability Rat (% PCP) 5 min [6] [% PCP]	Liver stability Rat (% PCP) 30 min [6] [% PCP]	Liver stability Human (% PCP) 5 min [7] [% PCP]	Liver stability Human (% PCP) 30 min [7] [% PCP]	NFTs (staining) ([1]; Table 3)	Plaques (staining) ([2]; Table 3)	SMILES	other results
−5.16	0.0372	0.448	94.88	92.06	80.98	52.10	−	−	COc1ccc(-n2nc(C(=O)N3CCC(CCF)CC3)c3csc(N)c3c2=O)cc1 [Compound 56]	
							−	−	CC(C)NC(=O)c1nn(-c2ccc(OCCF)cc2)c(=O)c2c(NC(=O)OC(C)(C)C)scc12 [Compound 64]	
							−	−	COc1ccc(-n2nc(C(=O)N3CCN(c4ccc(F)nc4)CC3)c3csc(N)c3c2=O)cc1 [Compound 67]	
−5.12	0.0498	0.589	60.12	32.54	91.63	73.10		−	COc1ccc(-n2nc(C(=O)N3CCC(CF)CC3)c3csc(N)c3c2=O)cc1.Cl [Compound 81]	
							−	−	CNc1scc2c(C(=O)NC(C)C)nn(-c3ccc(OC)cc3)c(=O)c12 [Compound 87]	
−5.51	0.0084	0.112	72.67	53.0	44.62	2.57			COc1ccc(-n2nc(C(=O)N3CCN(c4cccc(F)n4)CC3)c3csc(N)c3c2=O)cc1 [Compound 90]	Plaques (staining) ([2]; Table 2): −
							−	+	COc1ccc(-n2nc(C(=O)N3CC[C@@H](F)C3)c3csc(N)c3c2=O)cc1 [Compound 107]	Plaques (staining) ([9]; Table 3, 1 μM): −; Plaques (staining) ([9]; Table 3, 10 μM): −
							−	−	COc1ccc(-n2nc(C(=O)N3CC[C@H](F)C3)c3csc(N)c3c2=O)cc1 [Compound 108]	

Second part, the molecule before the results:

SMILES	PAMPA Log Pe [3]	fraction unbound at 1 μM [4]	fraction unbound at 1 μM [5]	Liver stability Rat (% PCP) 5 min [6] [% PCP]	Liver stability Rat (% PCP) 30 min [6] [% PCP]	Liver stability Human (% PCP) 5 min [7] [% PCP]	Liver stability Human (% PCP) 30 min [7] [% PCP]	NFTs (staining) ([1]; Table 3)	Plaques (staining) ([2]; Table 3)	other results
CC(C)NC(=O)c1nn(-c2ccc(F)cc2)c(=O)c2c(N)scc12 [Compound 14]	−4.89	0.0522	0.383	92.8	64.0	92.1	61.3			NFTs (staining) ([1]; Table 2): +; Plaques (staining) ([2]; Table 2): +; NFTs (staining) ([8]; 1 μM): −; NFTs (staining) ([8]; 10 μM): −; Plaques (staining) ([9]; Table 2, 1 μM): −; Plaques (staining) ([9]; Table 2, 10 μM): −
CC(C)NC(=O)c1nn(-c2ccc(O)cc2)c(=O)c2c(N)scc12 [Compound 58]	−7.52	0.068	0.506	90.03	79.3	100.9	83.4			
CC(C)NC(=O)c1nn(-c2ccc(OCC(O)CF)cc2)c(=O)c2c(N)scc12 (stereo not drawn) [Compound 59]										NFTs (staining) ([1]; Table 4): −; Plaques (staining) ([2]; Table 4): −
CC(C)NC(=O)c1nn(-c2ccc(OCCCF)cc2)c(=O)c2c(N)scc12 [Compound 61]										NFTs (staining) ([1]; Table 4): −; Plaques (staining) ([2]; Table 4): −
CC(C)NC(=O)c1nn(-c2ccc(O)cc2)c(=O)c2c(NC(=O)OC(C)(C)C)scc12 [Compound 63]										NFTs (staining) ([1]; Table 2): −
COc1ccc(-n2nc(C(=O)NC(C)C)c3csc(N(C)C)c3c2=O)cc1 [Compound 82]										NFTs (staining) ([1]; Table 2): +; Plaques (staining) ([2]; Table 2): ++; Plaques (staining) ([9]; Table 2, 1 μM): −; Plaques (staining) ([9]; Table 2, 10 μM): −
COc1ccc(-n2nc(C(=O)N3CCN(c4cccc(F)n4)CC3)c3csc(NC(=O)OC(C)(C)C)c3c2=O)cc1 [Compound 91]										NFTs (staining) ([1]; Table 2): −; Plaques (staining) ([2]; Table 2): −
COc1ccc(-n2nc(NCCF)c3csc(N)c3c2=O)cc1 [Compound 99]										tissue uptake at 2 min ([10]; rat, 2 min p.i.): > 0.2 %ID/g; tissue uptake at 10 min ([10]; rat): 0.092 %ID/g; tissue uptake at 30 min ([10]; rat): 0.013 %ID/g; tissue uptake at 60 min ([10]; rat): 0.001 %ID/g; Clearance ratio 2:30 min [10]: 23.8; Brain uptake and clearance (in words) ([10]; rat, from clearance ratio): rapid brain uptake followed by rapid clearance; Brain uptake % ID/g p.i ([10]; rat, i.v., 2 min p.i.): 0.31 % ID/g
CC(C)(C)OC(=O)c1nn(-c2ccc(OCCF)cc2)c(=O)c2c(N)scc12 [Compound 104]										NFTs (staining) ([1]; Table 4): −; Plaques (staining) ([2]; Table 4): −
CC(C)NC(=O)c1nn(-c2ccc([N+](=O)[O-])cc2)c(=O)c2c(N)scc12 [Compound 105]	−5.10	0.02	0.112	81.29	58.8	91.5	73.2			NFTs (staining) ([1]; Table 2): ++; Binding to NFTs (in words) [1, 11]: binds to NFTs (C, D) and plaques (D); also recorded: bind to both NFTs and plaques; Plaques (staining) ([2]; Table 2): ++; Binding to plaques (in words) [2, 11]: binds to NFTs (C, D) and plaques (D); also recorded: bind to both NFTs and plaques; NFTs (staining) ([8]; 1 μM): −; NFTs (staining) ([8]; 10 μM): +; Binding preference for NFTs (in words) ([8]; lower test concentrations, AD tissue): binds preferentially to NFTs; also recorded: bind with a preference for NFTs; Plaques (staining) ([9]; Table 2, 10 μM): −
COc1ccc(-n2nc(C(=O)NCCF)c3csc(N)c3c2=O)cc1 [Compound 106]									−	tissue uptake at 2 min ([10]; rat, 2 min p.i.): 0.014 %ID/g; tissue uptake at 10 min ([10]; rat): 0.001 %ID/g; tissue uptake at 30 min ([10]; rat): 0.004 %ID/g; tissue uptake at 60 min ([10]; rat): 0.001 %ID/g; Clearance ratio 2:30 min [10]: 3.5; Brain uptake (in words) ([10]; rat, cold bio-distribution): low brain uptake
